Source: ChEMBL document CHEMBL4834434, “Discovery of Novel and Potent N-Methyl-d-aspartate Receptor Positive Allosteric Modulators with Antidepressant-like Activity in Rodent Models” (J Med Chem, 2021)
Activity calls are given as the source filed them. The calls are words filed in the database; no cut-off is given here.

Tests used:
[1] = Brain to blood partition coefficient of the compound; type: physicochemical, tissue-based; details: read-out: logBB (converted)
[2] = biological target: Glutamate NMDA receptor (Mus musculus) (UniProt P35436+Q91ZU9+Q03391+P35438+Q01097+Q01098+A2AIR5); assay: Positive allosteric modulation of C57BL/6 mouse NMDA receptor assessed as fold change in compound potentiated NMDA-induced current relative to NMDA current alone at 30 uM measured after 15 to 30 mins by patch-clamp method; type: tissue-based; details: Brain, filed as positive allosteric modulator, time 15-30 min
Mus musculus = assay: Antidepressant activity in ICR mouse aassessed as inhibition of apomorphine-induced climbing behaviour at 10 mg/kg, ip administered prior to APO challenge and measured after 30 mins; type: functional, organism-based

| Compound | Kp [1] | fold change (FC) [2] | Activity (Mus musculus) |
| --- | --- | --- | --- |
| Cc1cc(C)n(Cc2ccc(C(=O)Nc3ccc(Br)cc3)o2)n1 | 0.646 | 1.2 |  |
| COc1cc(NC(=O)c2ccc(Cn3nc(C(F)(F)F)cc3C(F)(F)F)o2)cc(OC)c1 | 1.26 | 2.5 |  |
| Cc1cc(C)n(Cc2ccc(C(=O)Nc3ccccc3CCO)o2)n1 | 0.126 | 0.4 |  |
| Cc1cc(C)n(Cc2ccc(C(=O)Nc3cc(F)cc(F)c3)s2)n1 | 1 | 5 |  |
| COC(=O)c1cc(F)ccc1NC(=O)c1ccc(Cn2nc(C(F)(F)F)cc2C(F)(F)F)o1 | 0.794 | 1.9 |  |
| Cc1cc(C)n(Cc2ccc(C(=O)Nc3ccc(Cl)cc3C(=O)NCCCO)o2)n1 | 0.0331 | 2.9 |  |
| COC(=O)c1cc(F)ccc1NC(=O)c1ccc(Cn2nc(C)cc2C)o1 | 0.158 | 1.5 |  |
| Cc1cc(Br)ccc1NC(=O)c1ccc(Cl)o1 | 2.09 | 1.2 |  |
| Cc1cc(C)n(Cc2ccc(C(=O)Nc3ccc4ccccc4c3)o2)n1 | 0.398 | 3.2 |  |
| Cc1cc(C)n(Cc2ccc(C(=O)Nc3ccc(Br)cc3Cl)o2)n1 | 1 | 1.7 |  |
| Cc1cc(C)n(Cc2ccc(C(=O)Nc3ccc(-c4ccccc4)cc3)o2)n1 | 0.398 | 6.7 |  |
| CCc1cc(Br)ccc1NC(=O)c1ccc(Cn2nc(C)cc2C)o1 | 0.631 | 2.6 |  |
| Cc1cc(F)ccc1NC(=O)c1ccc(Cn2nc(C(F)(F)F)cc2C(F)(F)F)o1 | 2.51 | 2.4 |  |
| O=C(Nc1ccc(Cl)c(Cl)c1)c1ccc(Cn2nc(C(F)(F)F)cc2C(F)(F)F)o1 | 3.98 | 2.9 |  |
| CCOc1ccc(NC(=O)c2ccc(Cn3nc(C)cc3C)s2)cc1OCC | 0.251 | 2.7 |  |
| Cc1cc(C)n(Cc2ccc(C(=O)Nc3ccc(-c4ccccc4)cc3)s2)n1 | 0.398 | 2.8 |  |
| COC(=O)c1cc(Cl)ccc1NC(=O)c1ccc(Cn2nc(C)cc2C)o1 | 0.158 | 0.1 |  |
| Cc1cc(C)n(Cc2ccc(C(=O)Nc3ccccc3C)o2)n1 | 0.49 | 1.2 |  |
| Cc1cc(C)n(Cc2ccc(C(=O)Nc3cccnc3)o2)n1 | 0.251 | 2.9 |  |
| Cc1cc(C)n(Cc2ccc(C(=O)Nc3ccc(-c4ccccc4)cc3C)s2)n1 | 0.501 | 2.8 |  |
| Cc1cc(C)n(Cc2ccc(C(=O)Nc3ccc4cccnc4c3)s2)n1 | 0.316 | 1.1 |  |
| Cc1cc(C)n(Cc2ccc(C(=O)Nc3cc(Cl)cc(Cl)c3)s2)n1 | 1.26 | 1.2 |  |
| Cc1cc(C)n(Cc2ccc(C(=O)Nc3ccc(F)cc3C)o2)n1 | 0.631 | 1.9 |  |
| Cc1nc2n(c(=O)c1CCN1CCC(c3noc4cc(F)ccc34)CC1)CCCC2 |  |  | Active |
| Cc1cc(C)n(Cc2ccc(C(=O)Nc3ccc4ccccc4c3)s2)n1 | 0.631 | 1.8 |  |
| COc1cc(NC(=O)c2ccc(Cn3nc(C)cc3C)s2)cc(OC)c1 | 0.398 | 0.4 |  |
| Cc1cc(Cl)ccc1NC(=O)c1ccc(Cn2nc(C(F)(F)F)cc2C(F)(F)F)o1 | 2.51 | 0.7 |  |
| Cc1cc(C)n(Cc2ccc(C(=O)Nc3ccc(Cl)cc3C(=O)NCc3ccccc3)o2)n1 | 0.166 | 2.9 |  |

| Compound | Kp [1] | fold change (FC) [2] | Activity (Mus musculus) |
| --- | --- | --- | --- |
| Cc1cc(C)n(Cc2ccc(C(=O)Nc3ccc(F)c(Cl)c3)s2)n1 | 1.26 | 3.5 |  |
| Cc1cc(C)n(Cc2ccc(C(=O)Nc3ccc4nc[nH]c4c3)s2)n1 | 0.158 | 0.1 |  |
| Cc1cc(C)n(Cc2ccc(C(=O)Nc3ccc(Cl)cc3Cl)o2)n1 | 1 | 4.7 |  |
| Cc1cc(C)n(Cc2ccc(C(=O)Nc3ccc4[nH]c(=O)[nH]c4c3)s2)n1 | 0.0251 | 0.3 |  |
| Cc1cc(C)n(Cc2ccc(C(=O)Nc3ccccc3-c3ccccc3)o2)n1 | 0.398 | 0.3 |  |
| Cc1cc(C)n(Cc2ccc(C(=O)Nc3ccc(Cl)cc3C)o2)n1 | 0.724 | 3.2 |  |
| Cc1cc(C)n(Cc2ccc(C(=O)Nc3ccc(F)c(C)c3)s2)n1 | 0.794 | 2.4 |  |
| Cc1cc(Br)ccc1NC(=O)c1ccco1 | 1.41 | -0.2 |  |
| Cc1cc(C)n(Cc2ccc(C(=O)Nc3ccc(Cl)c(F)c3)s2)n1 | 1.26 | 6 |  |
| Cc1cc(C)n(Cc2ccc(C(=O)Nc3ccc(Cl)cc3C(=O)Nc3ccccc3)o2)n1 | 0.195 | 1.2 |  |
| Cc1cc(C)n(Cc2ccc(C(=O)Nc3ccc4cnccc4c3)s2)n1 | 0.316 | -0.2 |  |
| Cc1cc(C)n(Cc2ccc(C(=O)Nc3ccc(Cl)cc3C(=O)NCCCCO)o2)n1 | 0.17 | 1.7 |  |
| Cc1cc(C)n(Cc2ccc(C(=O)Nc3ccc(Cl)cc3CO)o2)n1 | 0.398 | 1.1 |  |
| Cc1cc(C(F)(F)F)n(Cc2ccc(C(=O)Nc3ccc(Br)cc3C)o2)n1 | 1.58 | 1.2 |  |
| Cc1cc(C)n(Cc2ccc(C(=O)Nc3ccccc3)o2)n1 | 0.398 | 0.1 |  |
| Cc1cc(C)n(Cc2ccc(C(=O)Nc3ccc(-c4cccnc4)cc3C)s2)n1 | 0.251 | 1.8 |  |
| CCCCNC(=O)c1cc(Cl)ccc1NC(=O)c1ccc(Cn2nc(C)cc2C)o1 | 0.257 | -0.6 |  |
| COC(=O)c1cc(Br)ccc1NC(=O)c1ccc(Cn2nc(C)cc2C)o1 | 0.251 | 2.7 |  |
| Cc1cc(C)n(Cc2ccc(C(=O)Nc3ccc(F)cc3Cl)o2)n1 | 0.794 | 0.9 |  |
| Cc1cc(Br)ccc1NC(=O)c1ccc(Cn2nc(C(F)(F)F)cc2C(F)(F)F)o1 | 2.51 | 10.7 |  |
| O=C(Nc1ccc(Cl)cc1Cl)c1ccc(Cn2nc(C(F)(F)F)cc2C(F)(F)F)o1 | 3.98 | 0.4 |  |
| Cc1cc(NC(=O)c2ccc(Cn3nc(C(F)(F)F)cc3C(F)(F)F)o2)ccc1F | 2.51 | 5.5 |  |
| Cc1ccc(C(=O)Nc2ccc(Br)cc2C)o1 | 1.32 | -0.3 |  |
| Cc1cc(C(F)(F)F)n(Cc2ccc(C(=O)Nc3ccc(Cl)cc3C)o2)n1 | 1.58 | 7.7 |  |
| Cc1cc(C)n(Cc2ccc(C(=O)Nc3ccc(Br)cc3C)s2)n1 | 1.26 | 1.5 |  |
| Cc1cc(C)n(Cc2ccc(C(=O)Nc3ccc(Cl)cc3C)s2)n1 | 1.26 | -0.2 |  |
| CNc1ccccc1NC(=O)c1ccc(Cn2nc(C)cc2C)o1 | 0.316 | 0.8 |  |
